# Assays:
# [1] = tested on: aSMase; details: cited from earlier work
# [2] = tested on: PDT-induced MVP release; test: PDT-induced MVP release in skin and plasma of mice; format: in vivo; details: wild-type mice, PDT 20 J/cm^2 blue light, 100 μl of 5 mM topical immediately after, 4 h
# Description: Next, the role of PAF and aSMase in PDT-induced MVP release was assessed. […] Next, the ability of topical PDT to generate MVP in vivo in mice, and the role of aSMase in this process, was determined. […] Two approaches were used to determine if PDT-induced MVP involved aSMase.
# The role of aSMase in PDT-mediated MVP release was evaluated in a murine system. For the data shown in FIG. 18, wild-type mice were treated with either sham, 100 μl of 5 mM IMIP, or 90% polyethylene glycol: 10% DMSO vehicle, or 1 μM TPA (as a positive control for MVP release), or PDT using 20 J/cm^2 blue light. Immediately following PDT, the treated areas were given vehicle or imipramine. At 4 hours post-treatment, the mice were euthanized and MVP were measured from duplicate 6-mm punch biopsies and plasma. The data are mean±SD fold increase in MVP normalized to tissue weight/plasma volume. * Denotes statistically significant (P<0.05) changes from sham; #statistically significant (P<0.05) changes from comparator denoted by line by two-way ANOVA; NS not statistically significant.
# To confirm the role of aSMase in PDT-induced MVP generation, PDT effects were evaluated in the absence of aSMase was evaluated in a murine system. For the data shown in FIG. 19, wild-type or aSMase-deficient (Smpd1−/−) mice underwent sham or PDT using 20 J/cm^2 blue light. At 4 hours post-treatment, the mice were euthanized and MVP were measured from duplicate 6-mm punch biopsies and plasma. The data are mean±SD fold increase in MVP normalized to tissue weight/plasma volume. * Denotes statistically significant (P<0.05) changes from sham; NS not statistically significant.
# [3] = tested on: UVB-induced MVP release; test: MVP release after localized UVB irradiation of volar forearm of human subjects; format: in vivo; details: human photosensitive vs normal subjects, 1 KJ/m^2 UVB, 4% imipramine immediately after, biopsies 4 h
# From the text: FIG. 22A compares normal subjects to subjects who have active photosensitivity disorders as denoted by positive screening. […] The individual data points are shown in FIG. 22A with the mean±SE of the groups for the UVB+vehicle for the normal and photosensitive subjects.
# [4] = tested on: human skin explants; test: UVB-induced MVP formation in human skin explants ex vivo; format: cell-based; details: 4 h
# From the text: Four hours post-UVB triplicate skin biopsies were obtained and MVP quantified.
# [5] = tested on: UVB-induced erythema; test: erythema and temperature response to low-fluence UVB on temple skin of subjects with rosacea; format: in vivo, human
# Description: 30 minutes later, a 1 cm area of previously treated skin was irradiated with a low 300 J/m^2 UVB. Erythema was measured before UVB and at various times post-UVB irradiation in blinded fashion with a mexameter and temperature using a thermal imaging camera. […] Values represent the change in erythema from baseline for each subject at 24 hours post-UVB. […] The boxes represent the area treated with UVB. Insets into the photographs are thermal camera images of the UVB-treated skin, with white areas on the thermal imaging camera denoting increased temperature.
# [6] = tested on: HaCaT XPA KO; test: UVB-induced MVP release in HaCaT XPA deficient cells; format: cell-based, human; details: HaCaT XPA KO cell line
# Description: HaCaT cells and HaCaT XPA deficient cells received no treatment (NT) or 1 KJ/m^2, 2.5 KJ/m^2, or 5 KJ/m^2 UVB radiation. After 4 hours, the supernatant was removed and the MVP concentration was measured. The numbers of MVP shown in FIG. 1 were normalized to cell count and NT. Data in FIG. 1 show the mean+S.E. fold change of at least three experiments. Groups were compared using One-Way ANOVA. (P<0.01) was considered statistically significant. * denotes changes between NT and UVB. #denotes changes between HaCaT and HaCaT XPA deficient cells.
# [7] = tested on: human skin explants; test: PDT-induced MVP release in human skin explants ex vivo; format: cell-based; details: 100 μL of 5 mM added post-PDT, 4 h
# Description: For the data shown in FIG. 14, HaCaT keratinocytes were treated with sham (no treatment), 0.1% ethanol vehicle control (VEH), 100 nM TPA, 100 nM CPAF, 1 mM 5-ALA for 4 hours, or 5-ALA followed by various fluences (2.5-20 J/cm^2) of blue light or blue light alone. Levels of MVPs released into supernatants were measured at 4 hours. […] For the data shown in FIG. 15, human skin explants were treated with sham, 100 μL vehicle (90% ethanol+10% DMSO) (VEH), 1 μM TPA, 1 µM CPAF, 1 mM 5-ALA for 4 hours, blue light or 5-ALA+blue light at 20 J/cm^2. After four hours, duplicate 6-mm punch biopsies were obtained, weighed, and MVPs were measured. The data are the mean±SE from 3-4 separate experiments conducted in duplicate. * Denotes statistically significant (P <0.05) changes from sham values.
# Supernatants were collected at 4 hours and MVP measured. The data are the mean±SE MVP fold change from sham-treated values. For the data shown in FIG. 17, human skin explants were treated as in FIG. 15, with the exception that in some experiments 100 μL of 5 mM IMIP was added post-PDT. MVP were measured in duplicate 6-mm punch biopsies obtained 4 hours post-treatment.
# [8] = tested on: TNFα and IL-6 mRNA; test: UVB-induced cytokine mRNA (qRT-PCR) in mouse skin biopsies; format: in vivo; details: mice, topical post-UVB, skin biopsies 4 h
smiles,measurement,setting,value
CN(C)CCCN1c2ccccc2CCc2ccccc21 [Imipramine],Residual ASM Activity,"[1]; 10 micromolar, PC12 cells, incubation time 0.5 h, % of corresponding control values",32.6%
same,residual aSMase activity after treatment,[1]; from Kornhuber et al. 2008,30.6%
same,PDT-induced MVP release in skin and plasma,[2],blocked MVP release
same,UVB-induced MVP release in forearm skin,[3],blocks the increased MVP release selectively in the photosensitive subjects
same,"UVB-induced MVP formation, pre-treatment","[4]; 100 μL 500 μM applied 30 minutes before 2,500 J/m^2 UVB",blocks UVB-induced MVP formation
same,"UVB-induced MVP formation, post-treatment","[4]; 100 μL 500 μM applied immediately after 2,500 J/m^2 UVB",blocks UVB-induced MVP formation
same,skin temperature (thermal imaging) after UVB,"[5]; one representative rosacea subject, 4% imipramine + UVB versus vehicle + UVB",less temperature signature
same,erythema response to UVB,"[5]; subjects with rosacea, 0.1 ml 4% imipramine 30 minutes before 300 J/m^2 UVB, 24 hours post-UVB",blocks the erythema response
same,increased MVP generation of XPA deficient keratinocytes,[6],blocked by imipramine
same,PDT-induced MVP release,[7],blocked PDT-induced MVP release
same,UVB-induced IL-6 mRNA,[8],blocks IL-6 mRNA responses
same,UVB-induced TNFα mRNA,[8],blocks TNFα mRNA responses

# Reference: patent US20240245703A1, “TOPICAL APPLICATION OF AGENTS TO REDUCE SUN SENSITIVITY AND IMPROVE TOPICAL PHOTODYNAMIC THERAPY” (Wright State University, priority 2021, published 2024)
